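Step 1: Grow cells in 96-well plates. Step 2: Expose to compound for 48 hours at 5 concentrations. Step 3: Interpolate endpoints linearly; if unreached, use highest concentration. Here, GI50 denotes the concentration required for 50% inhibition of growth.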 The source made the active and inactive calls. No stated cut-off is given here; in the data, active = GI50 up to about 1.1 µM and inactive = higher.
Tests used:
Assay in all cases: NCI-60 cell line screen, 48 h
NCI-H226 = test system: NCI-H226
MDA-MB-231 = test system: MDA-MB-231
NCI/ADR-RES = test system: NCI/ADR-RES
HCT-116 = test system: HCT-116
EKVX = test system: EKVX
TK-10 = test system: TK-10
M14 = test system: M14
UACC-257 = test system: UACC-257
Hs-578T = test system: Hs-578T
MOLT-4 = test system: MOLT-4
OVCAR-8 = test system: OVCAR-8
SN12C = test system: SN12C
SF-268 = test system: SF-268
U-251 = test system: U-251
A549 = test system: A549
HL-60 = test system: HL-60
T47D = test system: T47D
OVCAR-3 = test system: OVCAR-3
CAKI-1 = test system: CAKI-1
HCC 2998 = test system: HCC 2998

Compound	GI50 (NCI-H226)	GI50 (MDA-MB-231)	GI50 (NCI/ADR-RES)	GI50 (HCT-116)	GI50 (EKVX)	GI50 (TK-10)	GI50 (M14)	GI50 (UACC-257)	GI50 (Hs-578T)	GI50 (MOLT-4)	GI50 (OVCAR-8)	GI50 (SN12C)	GI50 (SF-268)	GI50 (U-251)	GI50 (A549)	GI50 (HL-60)	GI50 (T47D)	GI50 (OVCAR-3)	GI50 (CAKI-1)	GI50 (HCC 2998)
CN(Cc1cc(Cl)cc(Cl)c1O)Cc1c(O)ccc2ccccc12	20.6 µM (inactive)	16.9 µM (inactive)	20.6 µM (inactive)	23.7 µM (inactive)	20 µM (inactive)	17.1 µM (inactive)	20.2 µM (inactive)	18.2 µM (inactive)	19.1 µM (inactive)	20.9 µM (inactive)	19.5 µM (inactive)	21.2 µM (inactive)	13.6 µM (inactive)	16.3 µM (inactive)	26 µM (inactive)	25.4 µM (inactive)	19.2 µM (inactive)	16.6 µM (inactive)	18.3 µM (inactive)	–
COc1ccc(CC2C(=O)NC(C)C(=O)N(C)C3Cc4ccc(cc4)Oc4cc(ccc4O)CC(C(=O)NC(C)C(=O)NC(C)C(=O)N2C)N(C)C3=O)cc1 (stereo not drawn)	–	< 0.0001 µM (active)	2.44 µM (inactive)	0.0175 µM (active)	0.0175 µM (active)	0.0257 µM (active)	0.0027 µM (active)	0.0175 µM (active)	–	0.0175 µM (active)	0.0191 µM (active)	0.0175 µM (active)	–	0.0175 µM (active)	–	0.0175 µM (active)	< 0.0001 µM (active)	–	–	0.0175 µM (active)
CC1(C)CC2=NO[Se]3=C2C(=NO3)C1	3.76 µM (inactive)	4.19 µM (inactive)	–	0.485 µM (active)	2.8 µM (inactive)	4.29 µM (inactive)	1.99 µM (inactive)	2.17 µM (inactive)	4.35 µM (inactive)	3.48 µM (inactive)	2.38 µM (inactive)	4.43 µM (inactive)	5.3 µM (inactive)	3.69 µM (inactive)	3.42 µM (inactive)	2.22 µM (inactive)	6.07 µM (inactive)	1.68 µM (inactive)	3.65 µM (inactive)	5.19 µM (inactive)
CC(C)OC(=O)c1cccnc1/C=N/O	> 100 µM (inactive)	–	–	> 100 µM (inactive)	> 100 µM (inactive)	> 100 µM (inactive)	> 100 µM (inactive)	> 100 µM (inactive)	–	> 100 µM (inactive)	> 100 µM (inactive)	> 100 µM (inactive)	> 100 µM (inactive)	> 100 µM (inactive)	> 100 µM (inactive)	> 100 µM (inactive)	–	> 100 µM (inactive)	> 100 µM (inactive)	> 100 µM (inactive)
Cc1cc(Nc2ccc(/N=N/c3ccc(O)c4ncccc34)cc2)nc(C)n1	18.3 µM (inactive)	24.9 µM (inactive)	6.28 µM (inactive)	8.93 µM (inactive)	34.8 µM (inactive)	17.9 µM (inactive)	12.6 µM (inactive)	16.6 µM (inactive)	7.03 µM (inactive)	3.93 µM (inactive)	6.61 µM (inactive)	10.4 µM (inactive)	14.6 µM (inactive)	8.13 µM (inactive)	9.82 µM (inactive)	3.97 µM (inactive)	6.01 µM (inactive)	7.76 µM (inactive)	25.7 µM (inactive)	–
O=C(O)c1nc2ccccc2nc1Nc1ccc(Cl)c(Cl)c1	43.4 µM (inactive)	31.3 µM (inactive)	27.9 µM (inactive)	22.5 µM (inactive)	33.1 µM (inactive)	42.9 µM (inactive)	24.5 µM (inactive)	31.8 µM (inactive)	–	15.8 µM (inactive)	41.1 µM (inactive)	20.1 µM (inactive)	17.9 µM (inactive)	22.1 µM (inactive)	24.1 µM (inactive)	25.8 µM (inactive)	17.7 µM (inactive)	11.5 µM (inactive)	33 µM (inactive)	18.2 µM (inactive)
COC(=O)CCc1c(Cc2ccc[nH]2)[nH]c(C(=O)OCc2ccccc2)c1C	17.1 µM (inactive)	15.3 µM (inactive)	20.6 µM (inactive)	18.6 µM (inactive)	29.6 µM (inactive)	26 µM (inactive)	16.8 µM (inactive)	18.4 µM (inactive)	22.6 µM (inactive)	24.9 µM (inactive)	24.8 µM (inactive)	18.1 µM (inactive)	23.2 µM (inactive)	22.3 µM (inactive)	33.4 µM (inactive)	–	–	15.8 µM (inactive)	25.1 µM (inactive)	–
O=C(Cn1c2c(c3ccccc31)CCCC2)N1CCCCC1	–	–	> 100 µM (inactive)	> 100 µM (inactive)	> 100 µM (inactive)	> 100 µM (inactive)	> 100 µM (inactive)	> 100 µM (inactive)	> 100 µM (inactive)	> 100 µM (inactive)	> 100 µM (inactive)	> 100 µM (inactive)	–	–	> 100 µM (inactive)	> 100 µM (inactive)	–	> 100 µM (inactive)	> 100 µM (inactive)	> 100 µM (inactive)

— ChEMBL document CHEMBL1201862, “PubChem BioAssay data set” (2004)
